Results published in US8865122B2, “Methods and compositions for protein labelling” (Genentech, Inc., priority 2009, dated 2014).

Legend:
[1] = test system: HER2; settings: after 17-AAG, BT474 xenograft, cited from earlier work
[2] = test system: Hsp90; assay: Hsp90 targeted therapy (17-AAG) treatment response monitored by microPET; assay type: in vivo, Beige nude XID mice
Description: Hsp90 targeted therapy and microPET imaging. Mice were distributed into two groups (n=4) according to tumor uptake and volume as determined by ^18F-4D5ThioFab one day prior to 17-AAG treatment (Gill et al (2009) Jour. Med. Chem. 52(19):5816-5825). 17-AAG was administered to the treated group at day 0, while the control group animals were left untreated. PET imaging with ^18F-4D5ThioFab was performed at day 1 (fourteen hours after the administration of the last 17-AAG dose), day 5, and day 7. Coronal slices through the tumor of control animals and animals treated with 17-AAG one day before and one day after therapy are shown in FIG. 5a. […] The renal clearance of ^18F-4D5ThioFab was predominant with significant accumulation of radioactivity in the bladder and high uptake in the renal cortex (Table 3). The hepatobiliary route also contributed to tracer excretion leading to accumulation of radioactive metabolites in the large intestine and gall bladder while the retention of radioactivity in the liver was relatively low. […]
Mice were anesthetized with 3% sevoflurane and inoculated i.v. via the tail vein catheter with 0.3-0.4 mCi of ^18F-Thio4D5Fab in isotonic solution (50-100 μL). […] Body temperature was measured by a rectal probe and maintained by warm air. […]

[3] = lipophilicity (log P) measurement; assay type: physicochemical; settings: pH 7.4
Description: After SPE treatment, method B provided [^18F] 5 with a yield of 59±4%, a radiochemical purity of 94%, and a specific activity of 5.1±1.5 Ci/μmol (determined against an HPLC standard curve of ^19F-labeled 5) in 47±1 min (n=5). The identity of [^18F] 5 was confirmed by HPLC co-elution with ^19F-labeled standard and by LC/MS analysis of the decayed product. The lipophilicity (log P) of [^18F]5 (−2.41±0.09) was measured at pH 7.4 consistent with published methods (Rodionov et al (2007) J Am Chem Soc 129:12705-12).

[4] = water solubility observation; assay type: physicochemical
Source text: 4 or [^18F]FPEG4N3 with methods B and C. […] Therefore, method C may be well suited for general radiochemical application facilitating the development of a consistent radiochemical process for the production of a variety of ^18F-labeled prosthetic groups. This may have strong implications for automation and may eliminate the need for dedicating a synthesis module to a specific prosthetic group, as is the case with [^18F]SFB.

Which results are given for `C=CCNC1=C2C[C@@H](C)C[C@H](OC)[C@H](O)[C@@H](C)/C=C(\C)[C@H](OC(N)=O)[C@@H](OC)/C=C\C=C(/C)C(=O)NC(=CC1=O)C2=O` [Compound 17-AAG, 17-(allylamino)-17-demethoxygeldanamycin]?
return of HER2 to pretreatment levels ([1]; ^68Ga-DCHF (Smith-Jones et al)): 12 days; reduction in HER2 levels ([1]; imaged with ^68Ga-DCHF (Smith-Jones et al)): 70%; reduction in tumor uptake of ^18F-4D5ThioFab ([2]; day 1 after 17-AAG (three 50 mg/kg i.p. doses), compared to control group and day −1, BT474M1 xenograft): 50%; rebound of HER2 expression ([2]; day 5 after 17-AAG, ^18F-4D5ThioFab tumor uptake): 100%

With `O=C1C=CC(=O)N1CCOCCOCCOCCOCCOCCOCc1cn(CCOCCOCCOCCOCCOCCOCCOCC[18F])nn1` [[^18F]5] as the molecule, how does the logP [3] read?
The logP was -2.41 ± 0.09.

For `[N-]=[N+]=NCCOCC[18F]` [[^18F]FPEG2N3], which water solubility [4] is on record?
The water solubility was “limited water solubility”.
